Results on 3 molecules are retold here after ChEMBL document CHEMBL1212909, “Lactones and quinones from the tubers of Sinningia aggregata” (2010).

The test system of experiment [1] is Candida dubliniensis. The experiment is described as follows: Antifungal activity against Candida dubliniensis ATCC 777 by broth microdilution method.
Experiment [2] concerns Candida dubliniensis. Nature of the experiment: Antifungal activity against Candida dubliniensis ATCC 778157 by broth microdilution method.

Consider `Cc1ccc2c(c1)C(=O)c1cc(O)ccc1C2=O`, for which the MIC against Candida dubliniensis [1] and against Candida dubliniensis [2] was over 100 µg/mL throughout.

Consider `COc1ccc2c(c1)C(=O)c1cc(C)ccc1C2=O`, for which the MIC against Candida dubliniensis [1] and in the experiment with Candida dubliniensis [2] was over 100 µg/mL throughout.

Take `Cc1ccc2c(c1)C(=O)c1ccccc1C2=O` [TECTOQUINONE]: the MIC with Candida dubliniensis [1] and in the experiment on Candida dubliniensis [2] was over 100 µg/mL each time.
